Patent US9708336B2, “Metallo-beta-lactamase inhibitors” (priority 2014, dated 2017)
Like-named read-outs stand apart in the source and are kept apart here.

Experiments:
NDM-1 = NDM-1 (Klebsiella pneumoniae, UniProt C7C422); test: biochemical; type: biochemical; details: read-out: NDM-1 IC50
Description: Enzyme Activity: Determination of IC50
The Class B enzyme activities were measured in the presence of the test inhibitor in a fluorescence assay against a commercially available substrate consisting of a cephalosporin core linking 7-hydroxycoumarin to fluorescein (CCF2-FA). The enzyme (NDM-1, IMP-1 or VIM-1) and the substrate were diluted in 100 mM KH2PO4 buffer (pH 7) containing 0.005% Tween-20 and 10 μM ZnSO4. […] The test inhibitor was dissolved in dimethylsulfoxide and diluted 1:50 in the assay, resulting in a final concentration range of 20 uM to 0.00063 uM. In a 384-well microplate, the test inhibitor was incubated with the metallo-β-lactamase enzyme and the substrate for 2 hours at 25° C. Fluorescence at 460 nm following excitation at 405 nm was measured. The IC50 value was determined from semi-logarithmic plots of enzyme inhibition versus inhibitor concentration, with a curve generated using a 4-parameter fit.

[1] = system: Escherichia coli expressing NDM-1 (CLB30016); test: Antibiotic potentiation activity: synergistic concentration (MITC95) with imipenem, OD600 growth; type: cell-based; details: for Escherichia coli expressing NDM-1 (CLB 30016) MITC95: concentration giving 95% inhibition of bacterial growth
Method in brief: (§1)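 Absorbance after a 22–24 h, 35 °C incubation served as the read-out. Wells held bacteria (saline suspension diluted 1:100 into 1.1× CAMHB), imipenem at 4 μg/ml final or optionally 1 μg/ml, and test compound.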

[2] = system: Klebsiella pneumoniae expressing VIM-1 (IHMA599644); test: as above; type: cell-based; details: for Klebsiella pneumoniae expressing VIM-1 (IHMA 599644) MITC95: concentration giving 95% inhibition of bacterial growth
Method in brief: as §1

[3] = system: Serratia marcescens expressing IMP-1 (CL5741); test: as above; type: cell-based; details: for Serratia marcescens expressing IMP-1 (CL5741) MITC95: concentration giving 95% inhibition of bacterial growth
Method in brief: as §1

IMP-1 = IMP-1 (Serratia marcescens, UniProt P52699); test: biochemical; type: biochemical; details: read-out: IMP-1 IC50
Chain of IMP-1 (P52699 whole entry, looked up): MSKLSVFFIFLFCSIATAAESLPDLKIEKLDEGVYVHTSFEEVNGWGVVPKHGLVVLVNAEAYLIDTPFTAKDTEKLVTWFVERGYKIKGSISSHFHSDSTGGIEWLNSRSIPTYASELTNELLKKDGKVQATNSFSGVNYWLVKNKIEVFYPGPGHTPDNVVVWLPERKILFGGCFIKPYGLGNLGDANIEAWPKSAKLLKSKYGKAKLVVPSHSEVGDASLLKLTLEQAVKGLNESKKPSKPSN

VIM-1 = VIM-1 (Pseudomonas aeruginosa (strain ATCC 15692 / DSM 22644 / CIP 104116 / JCM 14847 / LMG 12228 / 1C / PRS 101 / PAO1), UniProt A0A0F7KYQ8); test: Enzyme activity: determination of IC50, fluorescence assay with CCF2-FA substrate (VIM-1); type: biochemical
[4] = fluorescence assay with CCF2-FA substrate
[5] = CLB30016 (NDM-1), 95% inhibition of bacterial growth
[6] = IHMA599644 (VIM-1), 95% inhibition of bacterial growth
[7] = CL5741 (IMP-1), 95% inhibition of bacterial growth
[8] = VIM-1 IC50, fluorescence assay with CCF2-FA substrate
[9] = fluorescence assay with CCF2-FA substrate, read-out: VIM-1 IC50
[10] = NDM-1 enzyme, CCF2-FA fluorescence assay
[11] = Escherichia coli expressing NDM-1 (CLB30016), 95% growth inhibition
[12] = Klebsiella pneumoniae expressing VIM-1 (IHMA599644), 95% growth inhibition
[13] = Serratia marcescens expressing IMP-1 (CL5741), 95% growth inhibition
[14] = IMP-1 enzyme, CCF2-FA fluorescence assay
[15] = VIM-1 enzyme, CCF2-FA fluorescence assay, read-out: VIM-1 IC50
[16] = NDM-1 enzyme, CCF2-FA substrate
[17] = (CLB30016, NDM-1), 95% growth inhibition
[18] = Klebsiella pneumoniae IHMA599644 (VIM-1), 95% growth inhibition
[19] = Serratia marcescens CL5741 (IMP-1), 95% growth inhibition
[20] = IMP-1 enzyme, CCF2-FA substrate
[21] = VIM-1 enzyme, CCF2-FA substrate, read-out: VIM-1 IC50

Chain of NDM-1 (C7C422 whole entry, looked up, species assumed): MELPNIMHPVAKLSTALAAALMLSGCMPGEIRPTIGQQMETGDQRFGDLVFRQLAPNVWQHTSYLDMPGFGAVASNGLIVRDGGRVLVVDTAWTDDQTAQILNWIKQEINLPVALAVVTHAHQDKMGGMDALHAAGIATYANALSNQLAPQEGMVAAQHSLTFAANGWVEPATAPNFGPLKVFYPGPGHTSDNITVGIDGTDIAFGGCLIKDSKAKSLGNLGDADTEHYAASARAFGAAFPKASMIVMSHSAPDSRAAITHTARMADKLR

SMILES | IC50 (NDM-1; [4]) [nM] | Escherichia coli MITC95 [1, 5] [µM] | Klebsiella pneumoniae MITC95 [2, 6] [µM] | Serratia marcescens MITC95 [3, 7] [µM] | IC50 (IMP-1; [4]) [nM] | IC50 (VIM-1; [9]) [nM] | IC50 (NDM-1; [10]) [nM] | Escherichia coli MITC95 [1, 11] [µM] | Klebsiella pneumoniae MITC95 [2, 12] [µM] | Serratia marcescens MITC95 [3, 13] [µM] | IC50 (IMP-1; [14]) [nM] | IC50 (VIM-1; [15]) [nM] | also measured
NS(=O)(=O)c1c(C(F)(F)F)ccc(-c2ccc(C3CCNCC3)nc2)c1-c1nnn[nH]1 [Example 744, 3-(6-piperidin-4-ylpyridin-3-yl)-2-(1H-tetrazol-5-yl)-6-(trifluoromethyl)benzenesulfon-amide] | 16.3 | 6.25 | 12.5 | 12.5 | 18.1 |  |  |  |  |  |  |  | IC50 (VIM-1; [8]): 0.907 nM
NCCC1CCN(c2ccc(C(F)(F)F)c(S(N)(=O)=O)c2-c2nnn[nH]2)CC1 [Example 755, 3-[4-(2-aminoethyl)piperidin-1-yl]-2-(1H-tetrazol-5-yl)-6-(trifluoromethyl) benzenesulfonamide] | 13.9 | 6.25 | 3.125 | 6.25 | 22.1 | 0.191 |  |  |  |  |  |  | 
NS(=O)(=O)c1c(C(F)(F)F)ccc(N2CCC(C3CCNCC3)CC2)c1-c1nnn[nH]1 [Example 779, 3-[4-(4-piperidyl)-1-piperidyl]-2-(1H-tetrazol-5-yl)-6-(trifluoromethyl) benzenesulfonamide] | 6.42 | 1.172 | 2.344 | 0.3906 | 6.7 | 0.11 |  |  |  |  |  |  | 
Nc1ccc2cc(-c3ccc(C(F)(F)F)c(S(N)(=O)=O)c3-c3nnn[nH]3)ccc2n1 [Example 745, 3-(2-aminoquinolin-6-yl)-2-(1H-tetrazol-5-yl)-6-(trifluoromethyl)benzenesulfon-amide] | 1.05 | 0.7813 | 3.125 | 3.125 | 1.5 | 0.175 |  |  |  |  |  |  | 
NC(=O)CNCc1ccc(-c2cccc(S(N)(=O)=O)c2-c2nnn[nH]2)cc1 [Example 340, 2-(((3′-sulfamoyl-2′-(1H-tetrazol-5-yl)-[1,1′-biphenyl]-4-yl)methyl)amino)acetamide] |  |  |  |  |  |  | 5.14 | 0.3906 | 25 | 1.563 | 90.2 | 158 | 
NS(=O)(=O)c1cccc(-c2ccc3nccnc3c2)c1-c1nnn[nH]1 [Example 405, 3-quinoxalin-6-yl-2-(1H-tetrazol-5-yl)benzenesulfonamide] |  |  |  |  |  |  | 4.23 | 1.563 | 62.5 | 1.563 | 67.6 | 16.9 | 
NS(=O)(=O)c1cccc(-c2ccc(CN3CCC(C(=O)O)C3)cc2)c1-c1nnn[nH]1 (stereo not drawn) [Example 343, 1-{[3′-sulfamoyl-2′-(1H-tetrazol-5-yl)biphenyl-4-yl]methyl}pyrrolidine-3-carboxylic acid] |  |  |  |  |  |  | 24.7 | 1.563 | 100 | 9.375 | 373 | 1180 | 
Nc1cncc(-c2cccc(S(N)(=O)=O)c2-c2nnn[nH]2)n1 [Example 137, 3-(6-aminopyrazin-2-yl)-2-(1H-tetrazol-5-yl)benzenesulfonamide] | 30.7 |  |  |  | 2530 | 561 |  |  |  |  |  |  | Escherichia coli expressing NDM-1 (CLB 30016) MITC95 [1]: 1.172 µM; Klebsiella pneumoniae expressing VIM-1 (IHMA 599644) MITC95 [2]: 25 µM; Serratia marcescens expressing IMP-1 (CL5741) MITC95 [3]: 25 µM
Nc1n[nH]c2ccc(-c3ccc(C(F)(F)F)c(S(N)(=O)=O)c3-c3nnn[nH]3)cc12 [Example 480, 3-(3-amino-1H-indazol-5-yl)-2-(1H-tetrazol-5-yl)-6-(trifluoromethyl)benzenesulfonamide] |  |  |  |  |  |  | 0.871 | 0.7813 | 2.344 | 0.7813 | 9.14 | 0.264 | 
Nc1ccnc2cc(-c3cccc(S(N)(=O)=O)c3-c3nnn[nH]3)ccc12 [Example 412, 3-(4-amino-7-quinolyl)-2-(1H-tetrazol-5-yl)benzenesulfonamide] |  |  |  |  |  |  | 25.9 | 0.3906 | 3.125 | 25 | 1390 | 25.8 | 
NS(=O)(=O)c1c(C(F)(F)F)ccc(-c2ccc(C3CNCCO3)cc2)c1-c1nnn[nH]1 (stereo not drawn) [Example 713, 4′-morpholin-2-yl-2-(1H-tetrazol-5-yl)-4-(trifluoromethyl)biphenyl-3-sulfonamide] |  |  |  |  |  |  |  |  |  |  |  |  | IC50 (NDM-1; [16]): 3.27 nM; Escherichia coli MITC95 [1, 17]: 3.125 µM; Klebsiella pneumoniae MITC95 [2, 18]: 3.125 µM; Serratia marcescens MITC95 [3, 19]: 6.25 µM; IC50 (IMP-1; [20]): 3.54 nM; IC50 (VIM-1; [21]): 0.819 nM
N=C(N)NC1CCC(CCc2ccc(C(F)(F)F)c(S(N)(=O)=O)c2-c2nn[nH]n2)CC1 (stereo not drawn) [Example 524, 3-(2-(4-Guanidinocyclohexyl)ethyl)-2-(2H-tetrazol-5-yl)-6-(trifluoromethyl)benzenesulfonamide] |  |  |  |  |  |  |  |  |  |  |  |  | IC50 (NDM-1; [16]): 24.8 nM; Escherichia coli MITC95 [1, 17]: 12.5 µM; Klebsiella pneumoniae MITC95 [2, 18]: 12.5 µM; Serratia marcescens MITC95 [3, 19]: 6.25 µM; IC50 (IMP-1; [20]): 5.13 nM; IC50 (VIM-1; [21]): 1.05 nM
NC1CCCC1N1CC(c2ccc(-c3ccc(C(F)(F)F)c(S(N)(=O)=O)c3-c3nnn[nH]3)cc2)C1 (stereo not drawn) [Example 811, 4′-[1-(2-aminocyclopentyl)azetidin-3-yl]-2-(1H-tetrazol-5-yl)-4-(trifluoromethyl)biphenyl-3-sulfonamide] | 4.78 | 1.563 | 100 | 6.25 | 9.42 |  |  |  |  |  |  |  | IC50 (VIM-1; [8]): 27.9 nM
NS(=O)(=O)c1c(C(F)(F)F)ccc(N2CCC(C3CCNCC3)C2)c1-c1nnn[nH]1 (stereo not drawn) [Example 774, 3-(3-piperidin-4-ylpyrrolidin-1-yl)-2-(1H-tetrazol-5-yl)-6-(trifluoromethyl) benzenesulfonamide] | 62.6 | 25 | 6.25 | 25 | 29.1 |  |  |  |  |  |  |  | IC50 (VIM-1; [8]): 1.35 nM
NCc1ccc(-c2ccc(C(F)(F)F)c(S(N)(=O)=O)c2-c2nn[nH]n2)cc1 [Example 439, 4′-(aminomethyl)-2-(2H-tetrazol-5-yl)-4-(trifluoromethyl)-[1,1′-biphenyl]-3-sulfonamide] |  |  |  |  |  |  | 11.9 | 0.7813 | 1.563 | 0.5859 | 20.6 | 4.05 | 
CN(C)c1ccc(C(F)(F)F)c(S(N)(=O)=O)c1-c1nnn[nH]1 [Example 784, 3-(dimethylamino)-2-(1H-tetrazol-5-yl)-6-(trifluoromethyl) benzenesulfonamide] | 41.7 | 3.125 | 31.25 | 3.125 | 48.3 | 15.5 |  |  |  |  |  |  | 
COc1ccc2cc(-c3cccc(S(N)(=O)=O)c3-c3nnn[nH]3)cnc2n1 [Example 138, 3-(7-methoxy-1,8-naphthyridin-3-yl)-2-(1H-tetrazol-5-yl)benzenesulfonamide] | 6.78 |  |  |  | 354 | 166 |  |  |  |  |  |  | Escherichia coli expressing NDM-1 (CLB 30016) MITC95 [1]: 1.563 µM; Klebsiella pneumoniae expressing VIM-1 (IHMA 599644) MITC95 [2]: >200 µM; Serratia marcescens expressing IMP-1 (CL5741) MITC95 [3]: 37.5 µM
NS(=O)(=O)c1c(C(F)(F)F)ccc(N2CC[C@H]3NCCO[C@@H]3C2)c1-c1nnn[nH]1 [Example 773, 3-[(4aR,8aR)-octahydro-6H-pyrido[3,4-b][1,4]oxazin-6-yl]-2-(1H-tetrazol-5-yl)-6-(trifluoromethyl) benzenesulfonamide] | 31.8 | 6.25 | 3.125 | 6.25 | 17.2 | 1.11 |  |  |  |  |  |  | 
NS(=O)(=O)c1nccc(N2CCC(N3CC[C@H](O)C3)CC2)c1-c1nnn[nH]1 [Example 226, 4-{4-[(3S)-3-hydroxypyrrolidin-1-yl]piperidin-1-yl}-3-(1H-tetrazol-5-yl)pyridine-2-sulfonamide] | 481 |  |  |  | 3870 | 710 |  |  |  |  |  |  | Escherichia coli expressing NDM-1 (CLB 30016) MITC95 [1]: 6.25 µM; Klebsiella pneumoniae expressing VIM-1 (IHMA 599644) MITC95 [2]: 12.5 µM; Serratia marcescens expressing IMP-1 (CL5741) MITC95 [3]: 50 µM
